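A five-concentration, 48-hour dose response in 96-well plates underlies each endpoint, interpolated linearly between surrounding concentrations. The concentration for 50% growth inhibition is given as GI50.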 The source made the active and inactive calls. No stated cut-off is given here; in the data, active = GI50 up to about 1.1 µM and inactive = higher.
What was measured:
Assay in all cases: inhibition of tumour cell growth, NCI panel, 48 h
[1] = test system: MCF7
[2] = test system: NCI/ADR-RES
[3] = test system: PC-3
[4] = test system: KM-20L2
[5] = test system: SNB-78
[6] = test system: DMS-273
[7] = test system: A498

Measured: GI50

O=C1CC(=O)N(c2ccccc2)N1/C(=C/c1ccccc1)c1ccccc1
inactive: [1] 21 µM | [2] 25.5 µM | [3] 15.7 µM

NC(=O)NN=C(CS)CS
inactive: [1] 24 µM | [2] 25.6 µM | [4] 19.8 µM | [5] 41 µM | [6] 20 µM | [7] 14.9 µM

O1C2C1C1OC1C1OC1C1OC21 (centres undefined)
inactive: [1] > 100 µM | [2] > 100 µM | [3] > 100 µM | [7] > 100 µM

CCOC(=O)NC(=O)c1cn(CCNCCO)c(=O)[nH]c1=O
inactive: [5] > 100 µM

Nc1ncnc2c1sc1nc3ccccc3n12
inactive: [1] 23 µM | [2] > 83 µM | [3] > 100 µM | [7] > 61.7 µM

Cn1c(=O)[nH]c2c(c1=O)C(=O)CN2
inactive: [4] > 100 µM | [5] > 100 µM | [6] > 100 µM

CCSc1nc(N)c2c(-c3ccccc3)c3c(nc2n1)CCC3
inactive: [1] > 100 µM | [2] > 100 µM | [3] > 100 µM

— ChEMBL document CHEMBL1201862, “PubChem BioAssay data set” (2004)
